# Like-named read-outs stand apart in the source and are kept apart here.
# Experiments:
# [1] = target: human D3 (Homo sapiens, UniProt P35462); test: radioligand binding assay, dopamine D3 receptor, [3H]spiperone; conditions: CHO cell membranes, mean of two to five experiments in triplicate, read-out: Ki D3
# Method: (§1) These experiments have been done according to methods which are described in literature (Hübner, H. et al., J. Med. Chem. (2000), 43, 7562). For the determination of binding affinity to the receptors of the dopamine D2 family membranes were established carrying the human D2long, D2short, D3 or D4.4 receptor subtype stably expressed in Chinese hamster ovary cell lines. In principle, the binding experiments started when incubating an appropriate amount of membrane with the radioligand [^3H]spiperone and the particular test compounds used in a wide range of different concentrations from subnanomolar up to micromolar ones.
# [2] = target: human D2long, D2short (Homo sapiens, UniProt P14416); test: biochemical; format: binding; conditions: CHO cell membranes, [3H]spiperone; mean of two to five experiments in triplicate; read-out: Ki D2
# Method: as §1
# [3] = target: T1, human D4.4 (Homo sapiens, UniProt P21917); test: radioligand binding assay, dopamine D4.4 receptor, [3H]spiperone; conditions: CHO cell membranes, mean of two to five experiments in triplicate, read-out: Ki D4.4
# T1 sequence (P21917 1-419): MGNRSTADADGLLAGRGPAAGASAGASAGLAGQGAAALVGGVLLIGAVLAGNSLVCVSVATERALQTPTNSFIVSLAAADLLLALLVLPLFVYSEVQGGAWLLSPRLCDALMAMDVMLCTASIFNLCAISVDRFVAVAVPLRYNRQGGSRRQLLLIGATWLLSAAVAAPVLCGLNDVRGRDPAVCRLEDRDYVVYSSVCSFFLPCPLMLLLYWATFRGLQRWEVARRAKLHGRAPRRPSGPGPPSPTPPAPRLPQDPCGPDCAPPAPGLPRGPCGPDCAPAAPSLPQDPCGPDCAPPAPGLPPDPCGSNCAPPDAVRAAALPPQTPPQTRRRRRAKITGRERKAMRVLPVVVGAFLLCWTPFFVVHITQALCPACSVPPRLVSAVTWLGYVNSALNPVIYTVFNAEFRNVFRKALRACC
# Text: as §1, with “Biological activity of the compounds has been determined in radioligand binding assays. These” for “These”, “ones. In the same way, binding affinities of the test compounds to the dopamine D1 receptor were determined when using native membrane preparations from porcine striatum and the D1 selective radioligand [^3H]SCH 23390.” for “ones.”
# (§2) The results of the binding experiments are summarized in Table 1 as mean values of two to five individual experiments each done in triplicate and expressed as Ki values in nM.
# [4] = target: T2, 5-HT1A (Sus scrofa, UniProt A0A4X1UTF5); test: radioligand binding assay, serotonin 5-HT1A receptor, [3H]WAY 100635; conditions: porcine cortex membranes, mean of two to five experiments in triplicate, read-out: Ki 5-HT1a
# T2 construct: membrane preparations from porcine cortex; from tissue; host or cells: porcine cortex
# T2 sequence (A0A4X1UTF5 1-422): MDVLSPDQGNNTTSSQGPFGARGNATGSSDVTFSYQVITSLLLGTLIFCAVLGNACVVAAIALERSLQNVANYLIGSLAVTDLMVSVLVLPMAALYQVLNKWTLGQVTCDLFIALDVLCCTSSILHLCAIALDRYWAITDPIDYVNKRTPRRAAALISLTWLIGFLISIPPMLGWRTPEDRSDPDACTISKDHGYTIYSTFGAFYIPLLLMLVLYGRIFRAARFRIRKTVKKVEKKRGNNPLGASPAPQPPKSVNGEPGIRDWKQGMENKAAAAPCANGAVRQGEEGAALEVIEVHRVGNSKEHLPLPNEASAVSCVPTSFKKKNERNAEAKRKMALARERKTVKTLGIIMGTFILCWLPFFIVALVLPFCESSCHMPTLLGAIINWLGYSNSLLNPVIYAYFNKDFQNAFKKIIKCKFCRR
# Method: (§3) The investigation of receptor binding to the serotonin and adrenergic receptors was done according to a published procedure (Heindl, C. et al., Tetrahedron: Asymmetry (2003), 14, 3141-3152). In detail, for the determination of the binding properties to serotonin receptors membrane preparations from porcine cortex was incubated with the 5-HT1A selective radioligand [^3H]WAY 100635 or with the 5-HT2 selective compound [^3H]ketanserin. The measurement of alpha-1 and alpha-2 receptor binding was achieved when utilizing porcine cortical membranes and the selective radioligands [^3H]prazosin (for alpha-1) and [^3H]RX821002 in an assay similar to that described above.
# as §2
# [5] = target: alpha-1; test: radioligand binding assay, adrenergic alpha-1 receptor, [3H]prazosin; conditions: porcine cortical membranes, mean of two to five experiments in triplicate, read-out: Ki alpha1
# Method: as §3, §2
# [6] = target: T3, 5-HT2 (Sus scrofa, UniProt P50129); test: radioligand binding assay, serotonin 5-HT2 receptor, [3H]ketanserin; design: species or system porcine
# T3 construct: membrane preparations from porcine cortex; from tissue; host or cells: porcine cortex
# [7] = target: T4, dopamine D1 receptor (Sus scrofa, UniProt P50130); test: radioligand binding assay, dopamine D1 receptor, [3H]SCH 23390; conditions: porcine striatum membranes, mean of two to five experiments in triplicate, read-out: Ki D1
# T4 construct: native membrane preparations from porcine striatum; from tissue; host or cells: porcine striatum
# Text: as §1, with “Biological activity of the compounds has been determined in radioligand binding assays. These” for “These”, “ones. In the same way, binding affinities of the test compounds to the dopamine D1 receptor were determined when using native membrane preparations from porcine striatum and the D1 selective radioligand [^3H]SCH 23390.” for “ones.”
# as §2
# [8] = porcine cortex membranes, [3H]ketanserin, mean of two to five experiments in triplicate, read-out: Ki 5-HT2
# human D2long, D2short, sequence (P14416 whole entry): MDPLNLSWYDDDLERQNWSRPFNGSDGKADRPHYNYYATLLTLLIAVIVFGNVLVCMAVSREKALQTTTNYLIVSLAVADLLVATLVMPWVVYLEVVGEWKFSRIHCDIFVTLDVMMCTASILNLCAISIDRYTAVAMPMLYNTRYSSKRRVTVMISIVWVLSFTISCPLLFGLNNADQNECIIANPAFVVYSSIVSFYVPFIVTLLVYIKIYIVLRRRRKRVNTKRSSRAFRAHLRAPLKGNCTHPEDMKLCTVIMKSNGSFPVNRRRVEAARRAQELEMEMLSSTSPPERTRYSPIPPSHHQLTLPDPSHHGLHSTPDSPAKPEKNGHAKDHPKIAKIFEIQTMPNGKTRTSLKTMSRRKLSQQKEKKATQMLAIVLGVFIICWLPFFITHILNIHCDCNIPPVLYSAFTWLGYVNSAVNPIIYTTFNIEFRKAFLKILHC
# T4 sequence (P50130 whole entry): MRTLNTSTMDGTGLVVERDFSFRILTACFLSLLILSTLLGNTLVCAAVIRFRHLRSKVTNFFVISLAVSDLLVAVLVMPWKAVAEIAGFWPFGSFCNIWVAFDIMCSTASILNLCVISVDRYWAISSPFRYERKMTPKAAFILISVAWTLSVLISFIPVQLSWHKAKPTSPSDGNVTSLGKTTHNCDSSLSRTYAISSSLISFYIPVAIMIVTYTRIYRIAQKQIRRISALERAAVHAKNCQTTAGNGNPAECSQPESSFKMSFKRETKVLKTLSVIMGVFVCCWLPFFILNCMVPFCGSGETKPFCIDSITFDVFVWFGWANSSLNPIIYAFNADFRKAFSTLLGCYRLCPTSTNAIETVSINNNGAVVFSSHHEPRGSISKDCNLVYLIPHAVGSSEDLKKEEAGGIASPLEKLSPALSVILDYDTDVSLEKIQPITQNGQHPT
# human D3, sequence (P35462 whole entry): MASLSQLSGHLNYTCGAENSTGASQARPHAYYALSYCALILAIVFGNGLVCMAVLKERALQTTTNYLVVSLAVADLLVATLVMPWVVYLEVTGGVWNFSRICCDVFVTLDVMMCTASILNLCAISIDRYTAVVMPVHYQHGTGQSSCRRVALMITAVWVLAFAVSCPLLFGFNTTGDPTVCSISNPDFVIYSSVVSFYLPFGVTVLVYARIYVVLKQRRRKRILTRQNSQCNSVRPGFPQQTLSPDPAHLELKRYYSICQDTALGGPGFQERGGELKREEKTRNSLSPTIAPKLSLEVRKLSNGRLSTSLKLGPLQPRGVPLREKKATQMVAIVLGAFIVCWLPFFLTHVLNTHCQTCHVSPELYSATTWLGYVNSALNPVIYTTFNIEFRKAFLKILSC
# T3 sequence (P50129 whole entry): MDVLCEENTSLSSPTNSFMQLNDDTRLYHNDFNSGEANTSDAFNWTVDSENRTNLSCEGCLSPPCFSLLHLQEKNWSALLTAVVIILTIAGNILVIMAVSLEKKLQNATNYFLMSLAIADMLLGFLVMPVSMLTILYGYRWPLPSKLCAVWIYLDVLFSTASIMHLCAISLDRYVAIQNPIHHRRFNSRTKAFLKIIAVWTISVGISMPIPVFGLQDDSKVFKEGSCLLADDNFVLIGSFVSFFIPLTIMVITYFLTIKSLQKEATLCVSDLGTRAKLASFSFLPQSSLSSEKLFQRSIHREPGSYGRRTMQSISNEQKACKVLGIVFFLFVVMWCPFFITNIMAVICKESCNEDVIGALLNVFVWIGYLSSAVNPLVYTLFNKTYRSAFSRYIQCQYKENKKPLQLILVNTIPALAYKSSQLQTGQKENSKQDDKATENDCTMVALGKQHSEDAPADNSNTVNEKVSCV
Molecule,Ki [1] [µM],Ki [2] [µM],Ki [3] [µM],Ki [4] [µM],Ki [5] [µM],Ki [6] [µM],Ki [7] [µM],"Ki [6, 8] [µM]"
"Cc1ccc(CNCC2(F)CCN(C(=O)c3cc4cc(Br)ccc4s3)CC2)nc1 [Example E24, 5-Bromobenzo[b]thien-2-yl-[4-fluoro-4-[[(5-methylpyridin-2-ylmothyl)amino]methyl]piporidin-1-yl]-methanone]",0.501 to 5,> 5,0.501 to 5,0.05 to 0.5,0.05 to 0.5,> 5,> 5,
"Cc1ccc(CNCC2(F)CCN(C(=O)c3csc4ccccc34)CC2)nc1 [Example E25, Benzo[b]thien-3-yl-[4-fluoro-4-[[(5-methylpyridin-2-ylmethyl)amino]methyl]piperidin-1-yl]-methanone]",> 5,> 5,0.05 to 0.5,< 0.05,0.501 to 5,,> 5,> 5
"Cc1ccc(CNCC2(F)CCN(C(=O)c3cc4ccsc4s3)CC2)nc1 [Example E27, [4-Fluoro-4-[[(5-methylpyridin-2-ylmethyl)amino]methyl]piperidin-1-yl]-thieno[2,3-b]thien-2-yl-methanone]",> 5,> 5,0.05 to 0.5,< 0.05,0.501 to 5,,> 5,> 5
"Cc1ccc(CNCC2(F)CCN(C(=O)c3scc4c3CCCC4)CC2)nc1 [Example E29, [4-Fluoro-4-[[(5-methylpyridin-2-ylmethyl)amino]methyl]pipendin-1-yl]-4,5,6,7-tetrahydrobenzo[c]thien-1-yl-methanone]",> 5,> 5,0.501 to 5,< 0.05,0.501 to 5,,> 5,> 5
"Cc1ccc(CNCC2(F)CCN(C(=O)c3sc(Br)c4c3OCCO4)CC2)nc1 [Example E30, 7-Bromo-2,3-dihydrothieno[3,4-b][1,4]dioxin-5-yl-[4-fluoro-4-[[5-methylpyridin-2-ylmethyl)aminolmothyl]piperidin-1-yl]-methanone]",0.501 to 5,> 5,0.501 to 5,< 0.05,0.501 to 5,> 5,> 5,
"Cc1ccc(CNCC2(F)CCN(C(=O)c3ccoc3)CC2)nc1 [Example E33, [4-Fluoro-4-[[(5-methylpyridin-2-ylmethyl)amino]methyl]piperidin-1-yl]-furan-3-yl-methanone]",> 5,> 5,> 5,0.05 to 0.5,> 5,,> 5,> 5
"Cc1ccc(CNCC2(F)CCN(C(=O)c3cnn4ccccc34)CC2)nc1 [Example E43, [4-Fluoro-4-[[(5-methylpyridin-2-ylmethyl)amino]methyl]piperidin-1-yl]-pyrazolo[1,5-a]pyridin-3-yl-methanone]",> 5,> 5,> 5,0.05 to 0.5,0.501 to 5,,> 5,> 5
[4-Fluoro-4-[[(5-methylpyridin-2-ylmethyl)amino]methyl]piperidin-1-yl]-indol-2-yl-methanone [Example E41],0.501 to 5,> 5,0.501 to 5,0.05 to 0.5,0.501 to 5,,> 5,> 5

# Other lines, results leading:
Ki [1] [µM],Ki [2] [µM],Ki [3] [µM],Ki [4] [µM],Ki [5] [µM],Ki [6] [µM],Ki [7] [µM],"Ki [6, 8] [µM]",Molecule
> 5,> 5,0.501 to 5,< 0.05,0.501 to 5,> 5,> 5,,"Cc1ccc(CNCC2(F)CCN(C(=O)c3cc4sccc4s3)CC2)nc1 [Example E26, [4-Fluoro-4-[[(5-methylpyridin-2-ylmethyl)amino]methyl]piperidin-1-yl]-thieno[3,2-b]thien-2-yl-mothanone]"
0.501 to 5,0.501 to 5,0.05 to 0.5,< 0.05,0.501 to 5,> 5,> 5,,"Cc1ccc(CNCC2(F)CCN(C(=O)c3sc4sccc4c3Cl)CC2)nc1 [Example E28, 3-Chlorothieno[2,3-b]thion-2-yl-[4-fluoro-4-[[(5-methylpyridin-2-ylmothyl)amino]methyl]piperidin-1-yl]-mothanone]"
> 5,> 5,> 5,0.05 to 0.5,> 5,,> 5,> 5,"Cc1ccc(CNCC2(F)CCN(C(=O)c3ccco3)CC2)nc1 [Example E31, [4-Fluoro-4-[[(5-methylpyridin-2-ylmethyl)amino]methyl]piperidin-1-yl]-furan-2-yl-methanone]"
> 5,> 5,0.501 to 5,< 0.05,0.501 to 5,> 5,> 5,,"Cc1ccc(CNCC2(F)CCN(C(=O)c3coc(Br)c3)CC2)nc1 [Example E34, 5-Bromofuran-3-yl-[4.fluoro-4-[[(5-methylpyridin-2-ylmethyl)amino]methyl]piperidin-1-yl]-methanone]"
> 5,> 5,0.501 to 5,0.05 to 0.5,0.501 to 5,> 5,> 5,,"Cc1ccc(CNCC2(F)CCN(C(=O)c3cc4ccccc4o3)CC2)nc1 [Example E35, Benzo[b]furan-2-yl-[4-fluoro-4-[[(5-methylpyridin-2-ylmothyl)amino]methyl]piperidin-1-yl]-methanone]"
> 5,> 5,> 5,0.05 to 0.5,> 5,> 5,> 5,,Cc1ccc(CNCC2(F)CCN(C(=O)c3cc4ccccn4n3)CC2)nc1 [Example E42]

# Source: patent EP2058306A1, “Heteroaryl-substituted 2-pyridinyl-methylamine derivatives” (SCHWARZ PHARMA AG, priority 2007, dated 2009)
